ChEMBL document CHEMBL5226283, “Reactive Oxygen Species (ROS)-Responsive Prodrugs, Probes, and Theranostic Prodrugs: Applications in the ROS-Related Diseases” (J Med Chem, 2021)

Assays:
Keap1/Nrf2 = Keap1/Nrf2 (Homo sapiens, UniProt Q14145+Q16236); assay: Inhibition of Keap1-Nrf2 (unknown origin); format: protein assay
[1] = Oral bioavailability in C57BL/6 mouse; format: ADME, organism-based; conditions: in vivo
[2] = Activation of Nrf2-ARE pathway in LPS-induced human HepG2-ARE-C8 cells; format: cell-based
[3] = Permeability of compound by PAMPA assay; format: ADME; conditions: read-out: permeability
[4] = molecular target: Matrix metalloproteinase-9 (Homo sapiens, UniProt P14780); assay: Inhibition of MMP9 (unknown origin)
A549 [5] = assay: Antiproliferative activity against human A549 cells assessed as cell growth inhibition; format: functional, cell-based
4T1 = assay: Antiproliferative activity against mouse 4T1 cells assessed as cell growth inhibition; format: functional, cell-based
A549 [6] = assay: Antitumor activity against human A549 tumor spheroid cells assessed as reduction in size of tumor spheroid measured after 3 days by fluorescence microscopic analysis relative to control; format: functional; design: scale not given: the % may be the effect or the level left; conditions: time 3 day
HeLa [7] = assay: Antiproliferative activity against human HeLa cells assessed as cell growth inhibition at 12.5 uM relative to control; format: functional; design: scale not given: the % may be the effect or the level left
KB = assay: Antiproliferative activity against human KB cells assessed as cell growth inhibition at 5 uM relative to control; format: functional; design: scale not given: the % may be the effect or the level left
WI-38 = assay: Cytotoxicity against human WI-38 cells assessed as cell growth inhibition at 5 uM relative to control; format: functional; design: scale not given: the % may be the effect or the level left
786-0 = assay: Antiproliferative activity against human 786-0 cells assessed as cell growth inhibition; format: functional
CCRF-CEM = assay: Antiproliferative activity against human CCRF-CEM cells assessed as cell growth inhibition; format: functional
ACHN = assay: Antiproliferative activity against human ACHN cells assessed as cell growth inhibition; format: functional
SF-539 = assay: Antiproliferative activity against human SF-539 cells assessed as cell growth inhibition; format: functional
DU-145 = assay: Antiproliferative activity against human DU-145 cells assessed as cell growth inhibition; format: functional
SNB-75 = assay: Antiproliferative activity against human SNB-75 cells assessed as cell growth inhibition; format: functional
RXF 393 = assay: Antiproliferative activity against human RXF 393 cells assessed as cell growth inhibition; format: functional
CAKI-1 [8] = assay: Antiproliferative activity against human CAKI-1 cells assessed as cell growth inhibition; format: functional
MCF7 = assay: Antiproliferative activity against human MCF7 cells assessed as cell growth inhibition; format: functional
MOLT-4 = assay: Antiproliferative activity against human MOLT-4 cells assessed as cell growth inhibition; format: functional
SF-268 = assay: Antiproliferative activity against human SF-268 cells assessed as cell growth inhibition; format: functional
UO-31 = assay: Antiproliferative activity against human UO-31 cells assessed as cell growth inhibition; format: functional
SF-295 = assay: Antiproliferative activity against human SF-295 cells assessed as cell growth inhibition; format: functional
LOX IMVI = assay: Antiproliferative activity against human LOX IMVI cells assessed as cell growth inhibition; format: functional
HOP-92 = assay: Antiproliferative activity against human HOP-92 cells assessed as cell growth inhibition; format: functional
M14 = assay: Antiproliferative activity against human M14 cells assessed as cell growth inhibition; format: functional
DNA [9] = assay: Induction of ROS-mediated DNA (unknown origin) assessed as efficiency of ICL formation preincubated with compounds followed by H2O2 addition relative to control; format: functional
MDA-MB-468 = assay: Antiproliferative activity against human MDA-MB-468 cells assessed as cell growth inhibition; format: functional
NCI-H460 [10] = assay: Antiproliferative activity against human NCI-H460 cells assessed as cell growth inhibition; format: functional
NCI-H23 = assay: Antiproliferative activity against human NCI-H23 cells assessed as cell growth inhibition; format: functional
UACC-62 = assay: Antiproliferative activity against human UACC-62 cells assessed as cell growth inhibition; format: functional
UACC-257 = assay: Antiproliferative activity against human UACC-257 cells assessed as cell growth inhibition; format: functional
NCI-H522 = assay: Antiproliferative activity against human NCI-H522 cells assessed as cell growth inhibition; format: functional
HL-60(TB) = assay: Antiproliferative activity against human HL-60(TB) cells assessed as cell growth inhibition; format: functional
SR [11] = assay: Antiproliferative activity against human SR cells assessed as cell growth inhibition; format: functional
HeLa [12] = assay: Antiproliferative activity against human HeLa cells assessed as cell growth inhibition at 2 uM relative to control; format: functional; design: scale not given: the % may be the effect or the level left
[13] = Cytotoxicity against human HEK293T cells assessed as cell growth inhibition
SN12C = assay: Antiproliferative activity against human SN12C cells assessed as cell growth inhibition at 10 uM by SRB assay; format: functional; design: scale not given: the % may be the effect or the level left
SR [14] = assay: Antiproliferative activity against human SR cells assessed as cell growth inhibition at 10 uM by SRB assay; format: functional; design: scale not given: the % may be the effect or the level left
CAKI-1 [15] = assay: Antiproliferative activity against human CAKI-1 cells assessed as cell growth inhibition at 10 uM by SRB assay; format: functional; design: scale not given: the % may be the effect or the level left
NCI-H460 [16] = assay: Antiproliferative activity against human NCI-H460 cells assessed as cell growth inhibition at 10 uM by SRB assay; format: functional; design: scale not given: the % may be the effect or the level left
DNA [17] = assay: Induction of ROS-mediated DNA (unknown origin) ICL formation by measuring rate constant preincubated with compounds followed by H2O2 addition; format: functional
MIA PaCa-2 = assay: Antiproliferative activity against human MIA PaCa-2 cells assessed as cell growth inhibition; format: functional, cell-based

Chain of Matrix metalloproteinase-9 (P14780 whole entry): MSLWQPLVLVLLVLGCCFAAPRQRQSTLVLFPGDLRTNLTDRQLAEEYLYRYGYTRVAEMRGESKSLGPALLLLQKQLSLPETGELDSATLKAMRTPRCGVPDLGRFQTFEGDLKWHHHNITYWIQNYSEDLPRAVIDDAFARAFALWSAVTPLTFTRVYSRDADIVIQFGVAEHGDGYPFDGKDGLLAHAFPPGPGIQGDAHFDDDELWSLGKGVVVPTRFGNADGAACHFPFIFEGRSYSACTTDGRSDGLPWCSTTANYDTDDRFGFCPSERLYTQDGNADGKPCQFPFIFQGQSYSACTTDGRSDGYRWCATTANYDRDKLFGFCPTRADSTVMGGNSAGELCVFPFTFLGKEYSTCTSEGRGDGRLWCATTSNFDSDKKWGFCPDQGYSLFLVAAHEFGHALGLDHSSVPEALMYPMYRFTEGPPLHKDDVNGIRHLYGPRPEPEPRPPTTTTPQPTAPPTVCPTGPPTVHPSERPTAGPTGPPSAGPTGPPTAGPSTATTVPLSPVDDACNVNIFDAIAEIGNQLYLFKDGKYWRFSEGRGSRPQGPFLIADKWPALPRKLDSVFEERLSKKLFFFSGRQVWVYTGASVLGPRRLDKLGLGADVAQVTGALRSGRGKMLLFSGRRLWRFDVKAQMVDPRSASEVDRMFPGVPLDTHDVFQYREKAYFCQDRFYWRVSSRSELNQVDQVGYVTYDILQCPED
Chain of Keap1/Nrf2 (Q16236 whole entry): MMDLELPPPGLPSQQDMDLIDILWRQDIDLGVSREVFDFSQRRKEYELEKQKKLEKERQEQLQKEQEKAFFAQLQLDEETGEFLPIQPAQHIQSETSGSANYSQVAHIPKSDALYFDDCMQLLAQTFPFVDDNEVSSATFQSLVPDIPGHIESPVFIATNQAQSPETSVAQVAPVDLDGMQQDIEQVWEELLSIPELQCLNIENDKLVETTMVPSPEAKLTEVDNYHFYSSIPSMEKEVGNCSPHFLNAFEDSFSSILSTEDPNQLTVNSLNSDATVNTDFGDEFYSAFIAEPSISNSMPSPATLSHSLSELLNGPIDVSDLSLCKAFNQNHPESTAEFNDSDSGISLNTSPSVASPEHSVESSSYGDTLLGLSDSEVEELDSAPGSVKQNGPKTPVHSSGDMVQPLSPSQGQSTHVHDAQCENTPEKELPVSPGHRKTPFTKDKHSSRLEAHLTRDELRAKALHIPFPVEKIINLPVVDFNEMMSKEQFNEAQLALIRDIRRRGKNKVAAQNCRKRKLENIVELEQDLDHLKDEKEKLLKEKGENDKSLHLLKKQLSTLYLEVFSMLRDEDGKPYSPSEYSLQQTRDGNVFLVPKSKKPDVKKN
Chain of Keap1/Nrf2 (Q14145 whole entry): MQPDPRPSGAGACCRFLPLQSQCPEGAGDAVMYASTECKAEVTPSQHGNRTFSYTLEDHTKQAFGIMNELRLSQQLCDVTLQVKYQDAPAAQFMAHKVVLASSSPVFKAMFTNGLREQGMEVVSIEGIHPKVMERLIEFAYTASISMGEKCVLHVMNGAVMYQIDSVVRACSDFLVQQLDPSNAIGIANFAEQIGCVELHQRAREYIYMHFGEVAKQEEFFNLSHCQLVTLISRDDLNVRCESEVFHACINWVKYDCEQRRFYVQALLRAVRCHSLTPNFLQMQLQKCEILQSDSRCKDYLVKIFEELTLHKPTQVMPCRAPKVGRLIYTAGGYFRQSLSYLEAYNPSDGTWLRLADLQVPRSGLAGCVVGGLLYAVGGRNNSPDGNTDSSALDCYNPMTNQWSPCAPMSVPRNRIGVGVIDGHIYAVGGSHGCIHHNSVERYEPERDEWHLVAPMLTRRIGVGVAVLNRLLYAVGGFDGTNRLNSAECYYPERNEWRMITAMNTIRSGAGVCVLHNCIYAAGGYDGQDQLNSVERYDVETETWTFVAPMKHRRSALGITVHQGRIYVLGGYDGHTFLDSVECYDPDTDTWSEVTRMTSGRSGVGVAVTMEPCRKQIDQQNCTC

`CC1(C)OB(c2ccc(COn3c(C(=O)NCc4ccc(-c5ccccc5)cc4)cccc3=O)cc2)OC1(C)C` showed an IC50 (Keap1/Nrf2) of 96.7 nM, a bioavailability [1] of 68.1% and an EC50 [2] of 320 nM. For the same molecule, the Papp [3] was 6.35 ×10⁻⁶ cm/s and the IC50 [4] was over 1 mM.
For `CCCCC/C=C\C/C=C\CCCCCCCC(=O)OCCOC(=O)CSCC(=O)OC(C(=O)OC1C[C@@]2(O)[C@@H](OC(=O)c3ccccc3)[C@@H]3[C@]4(OC(C)=O)CO[C@@H]4C[C@H](O)[C@@]3(C)C(=O)[C@H](OC(C)=O)C(=C1C)C2(C)C)C(NC(=O)c1ccccc1)c1ccccc1` (stereo partly drawn), the IC50 (A549 [5]) was 176 nM and the IC50 (4T1) was 127 nM.
In the case of `O=C(CCCCCCC(=O)Nc1ccccc1)NO` [VORINOSTAT], the Activity (A549 [6]) is reported as 50%.
For `COC(=O)[C@]1([Se]c2ccccc2)C[C@]2(C)C(=O)[C@]1(C)C(c1ccccc1)=C2c1ccccc1`, the Activity (HeLa [7]) was “<=80%”.
`CCN(CC)c1ccc2c(c1)Oc1cc(OCc3ccc(B4OC(C)(C)C(C)(C)O4)cc3)c(COC(=O)OC3(CC)C(=O)OCc4c3cc3n(c4=O)Cc4cc5ccccc5nc4-3)cc1C21c2ccccc2CN1CCNC(=O)CCC(NC(=O)c1ccc(NCc2cnc3[nH]c(N)nc(=O)c3n2)cc1)C(=O)O` (stereo not drawn) showed an Activity (KB) of 70% and an Activity (WI-38) of 100%.
`CC1(C)OB(c2ccc(COC(=O)Nc3ccc(N(CCCl)CCCl)cc3)cc2)OC1(C)C` showed a GI50 (786-0) of under 1000 nM, a GI50 (CCRF-CEM) of under 1000 nM and a GI50 (ACHN) of under 1000 nM. The GI50 (SF-539) was under 1000 nM, the GI50 (DU-145) was under 1000 nM and the GI50 (SNB-75) was under 1000 nM. For the same molecule, the GI50 (RXF 393) was under 1000 nM, the GI50 (CAKI-1 [8]) was under 1000 nM and the GI50 (MCF7) was under 1000 nM. For the same molecule, the GI50 (MOLT-4) was under 1000 nM, the GI50 (SF-268) was under 1000 nM and the GI50 (UO-31) was under 1000 nM. The GI50 (SF-295) was under 1000 nM, the GI50 (LOX IMVI) was under 1000 nM and the GI50 (A549 [5]) was under 1000 nM. The GI50 (HOP-92) was under 1000 nM, the GI50 (M14) was under 1000 nM and the Activity (DNA [9]) was 47%. For the same molecule, the GI50 (MDA-MB-468) was under 1000 nM, the GI50 (NCI-H460 [10]) was under 1000 nM and the GI50 (NCI-H23) was under 1000 nM. It also gave a GI50 (UACC-62) of under 1000 nM, a GI50 (UACC-257) of under 1000 nM and a GI50 (NCI-H522) of under 1000 nM. It also gave a GI50 (HL-60(TB)) of under 1000 nM and a GI50 (SR [11]) of under 1000 nM.
`COc1cccc2c1C(=O)c1c(O)c3c(c(O)c1C2=O)C[C@@](O)(C(=O)CO)C[C@@H]3O[C@H]1C[C@H](N)[C@H](O)[C@H](C)O1` [DOXORUBICIN] showed an Activity (HeLa [12]) of 20%.
`CC1(C)OB(c2ccc(COC(=O)ONC(=O)CCCCCCC(=O)Nc3ccccc3)cc2)OC1(C)C` gave an Activity (A549 [6]) of 80% and an EC50 [13] of over 1000 nM.
For `CC1(C)OB(c2ccc(C[N+](C)(CCCl)CCCl)cc2)OC1(C)C.[Br-]`, the Activity (SN12C) was 57%, the Activity (SR [14]) was 90% and the Activity (CAKI-1 [15]) was 66%. For the same molecule, the Activity (NCI-H460 [16]) was 85%, the K (DNA [17]) was 4.6 10^-5/s and the Activity (DNA [9]) was 43%.
Work on `COc1cccc2c1C(=O)c1c(O)c3c(c(O)c1C2=O)C[C@@](O)(C(=O)CO)C[C@@H]3O[C@H]1C[C@H](NC(=O)OCc2ccc(B3OC(C)(C)C(C)(C)O3)cc2)[C@H](O)[C@H](C)O1` yielded an IC50 (MIA PaCa-2) of 300 nM.
In the case of `CC1(C)OB(c2ccc(COc3c(C(=O)NCc4ccc(-c5ccccc5)cc4)occc3=O)cc2)OC1(C)C`, the IC50 [4] is reported as over 1 mM.
